Assays:
Assay type in all cases: in vivo
[1] = test system: barnyardgrass (Echinochloa crus-galli); assay: Test A preemergence, barnyardgrass; conditions: 0 to 100 scale, 0 is no effect, 100 is complete control
In short: (§1)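 Seeds sown in loam–sand blend received a directed soil spray of test chemical in non-phytotoxic solvent with surfactant (preemergence); postemergence plants at 2–10 cm, one- to two-leaf stage, were sprayed with the same formulation. Injury rated visually versus untreated controls after ~10 d in greenhouse, 0–100 scale.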

kochia (Kochia scoparia) [2] = assay: Test A preemergence, kochia; conditions: 0 to 100 scale, 0 is no effect, 100 is complete control
In short: as §1

[3] = test system: ragweed (common ragweed, Ambrosia elatior); assay: Test A preemergence, ragweed; conditions: 0 to 100 scale, 0 is no effect, 100 is complete control
In short: as §1

[4] = test system: ryegrass, Italian (Lolium multiflorum); assay: Test A preemergence, Italian ryegrass; conditions: 0 to 100 scale, 0 is no effect, 100 is complete control
In short: as §1

[5] = test system: foxtail, giant (Setaria faberii); assay: Test A preemergence, giant foxtail; conditions: 0 to 100 scale, 0 is no effect, 100 is complete control
In short: as §1

[6] = test system: pigweed (Amaranthus retroflexus); assay: Test A preemergence, pigweed; conditions: 0 to 100 scale, 0 is no effect, 100 is complete control
In short: as §1

[7] = test system: barnyardgrass (Echinochloa crus-galli); assay: Test A postemergence, barnyardgrass; conditions: 0 to 100 scale, 0 no effect, 100 complete control
In short: as §1

kochia (Kochia scoparia) [8] = assay: Test A postemergence, kochia; conditions: 0 to 100 scale, 0 no effect, 100 complete control
In short: as §1

[9] = test system: ragweed (common ragweed, Ambrosia elatior); assay: Test A postemergence, ragweed; conditions: 0 to 100 scale, 0 no effect, 100 complete control
In short: as §1

[10] = test system: ryegrass, Italian (Lolium multiflorum); assay: Test A postemergence, Italian ryegrass; conditions: 0 to 100 scale, 0 no effect, 100 complete control
In short: as §1

[11] = test system: foxtail, giant (Setaria faberii); assay: Test A postemergence, giant foxtail; conditions: 0 to 100 scale, 0 no effect, 100 complete control
In short: as §1

[12] = test system: pigweed (Amaranthus retroflexus); assay: Test A postemergence, pigweed; conditions: 0 to 100 scale, 0 no effect, 100 complete control
In short: as §1

[13] = test system: wheat (Triticum aestivum); assay: Test A postemergence, wheat; conditions: 0 to 100 scale, 0 no effect, 100 complete control
In short: as §1

corn (Zea mays) = assay: Test A postemergence, corn; conditions: 0 to 100 scale, 0 no effect, 100 complete control
In short: as §1

[14] = test system: blackgrass (Alopecurus myosuroides); assay: Test A postemergence, blackgrass; conditions: 0 to 100 scale, 0 no effect, 100 complete control
In short: as §1

[15] = test system: galium (catchweed bedstraw, Galium aparine); assay: Test A postemergence, galium; conditions: 0 to 100 scale, 0 no effect, 100 complete control
In short: as §1

rice (Oryza sativa) = assay: Test B flooded paddy test, rice; conditions: Flood, 250 g ai/ha, applied to paddy water, 2-leaf stage, visual evaluation after 13 to 15 d
In short: (§2)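 Plants grown to 2-leaf stage. Compounds applied directly into paddy water flooded 3 cm above soil, with that depth kept throughout. After 13–15 d in greenhouse, visual rating versus controls on a 0–100 scale (0 no effect, 100 complete control).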

[16] = test system: sedge, umbrella (small-flower umbrella sedge, Cyperus difformis); assay: Test B flooded paddy test, umbrella sedge; conditions: Flood, 250 g ai/ha, applied to paddy water, 2-leaf stage, visual evaluation after 13 to 15 d
In short: as §2

[17] = test system: ducksalad (Heteranthera limosa); assay: Test B flooded paddy test, ducksalad; conditions: Flood, 250 g ai/ha, applied to paddy water, 2-leaf stage, visual evaluation after 13 to 15 d
In short: as §2

[18] = test system: barnyardgrass (Echinochloa crus-galli); assay: Test B flooded paddy test, barnyardgrass; conditions: Flood, 250 g ai/ha, applied to paddy water, 2-leaf stage, visual evaluation after 13 to 15 d
In short: as §2

Structure (SMILES) | Barnyardgrass plant response rating ([1]; 31 g ai/ha) | Barnyardgrass plant response rating ([1]; 125 g ai/ha) | Kochia plant response rating (kochia (Kochia scoparia) [2]; 31 g ai/ha) | Kochia plant response rating (kochia (Kochia scoparia) [2]; 125 g ai/ha) | Ragweed plant response rating ([3]; 31 g ai/ha) | Ragweed plant response rating ([3]; 125 g ai/ha) | Ryegrass, Italian plant response rating ([4]; 31 g ai/ha) | Ryegrass, Italian plant response rating ([4]; 125 g ai/ha) | Foxtail, Giant plant response rating ([5]; 31 g ai/ha) | Foxtail, Giant plant response rating ([5]; 125 g ai/ha) | Pigweed plant response rating ([6]; 31 g ai/ha) | Pigweed plant response rating ([6]; 125 g ai/ha) | Plant response rating, Barnyardgrass ([7]; 31 g ai/ha) | Plant response rating, Barnyardgrass ([7]; 125 g ai/ha) | Plant response rating, Kochia (kochia (Kochia scoparia) [8]; 31 g ai/ha) | Plant response rating, Kochia (kochia (Kochia scoparia) [8]; 125 g ai/ha) | Plant response rating, Ragweed ([9]; 31 g ai/ha) | Plant response rating, Ragweed ([9]; 125 g ai/ha) | Plant response rating, Ryegrass, Italian ([10]; 31 g ai/ha) | Plant response rating, Ryegrass, Italian ([10]; 125 g ai/ha) | other results
C[C@@H](Nc1ncc([S+](C)[O-])c(N)n1)c1cc2ccccc2s1 (stereo partly drawn) [Compound 110] | 0 | 0 | 0 | 0 | 40 | 80 | 0 | 0 | 0 | 0 | 0 | 30 | 0 | 10 | 0 | 10 | 0 | 30 | 0 | 0 | Plant response rating, Foxtail, Giant ([11]; 31 g ai/ha): 0; Plant response rating, Foxtail, Giant ([11]; 125 g ai/ha): 0; Plant response rating, Pigweed ([12]; 31 g ai/ha): 60; Plant response rating, Pigweed ([12]; 125 g ai/ha): 80; Plant response rating, Wheat ([13]; 31 g ai/ha): 0; Plant response rating, Wheat ([13]; 125 g ai/ha): 0; Plant response rating, Corn (corn (Zea mays); 31 g ai/ha): 0; Plant response rating, Corn (corn (Zea mays); 125 g ai/ha): 10; Plant response rating, Blackgrass ([14]; 31 g ai/ha): 0; Plant response rating, Blackgrass ([14]; 125 g ai/ha): 0; Plant response rating, Galium ([15]; 31 g ai/ha): 30; Plant response rating, Galium ([15]; 125 g ai/ha): 70; Plant response rating, Rice (0 to 100 scale, 0 is no effect, 100 is complete control) (rice (Oryza sativa)): 15; Plant response rating, Sedge, Umbrella (0 to 100 scale, 0 is no effect, 100 is complete control) [16]: 90; Plant response rating, Ducksalad (0 to 100 scale, 0 is no effect, 100 is complete control) [17]: 60; Plant response rating, Barnyardgrass (0 to 100 scale, 0 is no effect, 100 is complete control) [18]: 20
C[C@@H](Nc1nc(N)c(C(F)(F)F)c(C(F)F)n1)c1cc2ccccc2o1 [Compound 111] | 0 | 0 | 40 | 70 | 30 | 90 | 0 | 0 | 0 | 10 | 10 | 70 | 10 | 0 | 0 | 60 | 40 | 50 | 0 | 0 | Plant response rating, Foxtail, Giant ([11]; 31 g ai/ha): 0; Plant response rating, Foxtail, Giant ([11]; 125 g ai/ha): 0; Plant response rating, Pigweed ([12]; 31 g ai/ha): 50; Plant response rating, Pigweed ([12]; 125 g ai/ha): 80; Plant response rating, Wheat ([13]; 31 g ai/ha): 0; Plant response rating, Wheat ([13]; 125 g ai/ha): 0; Plant response rating, Corn (corn (Zea mays); 31 g ai/ha): 0; Plant response rating, Corn (corn (Zea mays); 125 g ai/ha): 20; Plant response rating, Blackgrass ([14]; 31 g ai/ha): 0; Plant response rating, Blackgrass ([14]; 125 g ai/ha): 0; Plant response rating, Galium ([15]; 31 g ai/ha): 20; Plant response rating, Galium ([15]; 125 g ai/ha): 50; Plant response rating, Rice (0 to 100 scale, 0 is no effect, 100 is complete control) (rice (Oryza sativa)): 0; Plant response rating, Sedge, Umbrella (0 to 100 scale, 0 is no effect, 100 is complete control) [16]: 0; Plant response rating, Ducksalad (0 to 100 scale, 0 is no effect, 100 is complete control) [17]: 0; Plant response rating, Barnyardgrass (0 to 100 scale, 0 is no effect, 100 is complete control) [18]: 0
CC(F)c1nc(N[C@H](C)c2cc3ccccc3o2)nc(N)c1C(F)(F)F (stereo partly drawn) [Compound 112] | 0 | 0 | 0 | 70 | 0 | 30 | 0 | 0 | 0 | 0 | 0 | 80 | 0 | 0 | 10 | 60 | 0 | 0 | 0 | 0 | Plant response rating, Foxtail, Giant ([11]; 31 g ai/ha): 0; Plant response rating, Foxtail, Giant ([11]; 125 g ai/ha): 0; Plant response rating, Pigweed ([12]; 31 g ai/ha): 30; Plant response rating, Pigweed ([12]; 125 g ai/ha): 60; Plant response rating, Wheat ([13]; 31 g ai/ha): 0; Plant response rating, Wheat ([13]; 125 g ai/ha): 0; Plant response rating, Corn (corn (Zea mays); 31 g ai/ha): 30; Plant response rating, Corn (corn (Zea mays); 125 g ai/ha): 0; Plant response rating, Blackgrass ([14]; 31 g ai/ha): 0; Plant response rating, Blackgrass ([14]; 125 g ai/ha): 0; Plant response rating, Galium ([15]; 31 g ai/ha): 20; Plant response rating, Galium ([15]; 125 g ai/ha): 60; Plant response rating, Rice (0 to 100 scale, 0 is no effect, 100 is complete control) (rice (Oryza sativa)): 0; Plant response rating, Sedge, Umbrella (0 to 100 scale, 0 is no effect, 100 is complete control) [16]: 0; Plant response rating, Ducksalad (0 to 100 scale, 0 is no effect, 100 is complete control) [17]: 0; Plant response rating, Barnyardgrass (0 to 100 scale, 0 is no effect, 100 is complete control) [18]: 0
C[C@@H](Nc1ncc(C(F)(F)F)c(N)n1)c1cc2c(F)ccc(F)c2s1 [Compound 114] | 0 | 40 | 30 | 60 | 40 | 60 | 30 | 50 | 10 | 70 | 50 | 100 | 10 | 30 | 50 | 80 | 40 | 80 | 0 | 40 | Plant response rating, Foxtail, Giant ([11]; 31 g ai/ha): 10; Plant response rating, Foxtail, Giant ([11]; 125 g ai/ha): 100; Plant response rating, Pigweed ([12]; 31 g ai/ha): 100; Plant response rating, Pigweed ([12]; 125 g ai/ha): 100; Plant response rating, Wheat ([13]; 31 g ai/ha): 0; Plant response rating, Wheat ([13]; 125 g ai/ha): 30; Plant response rating, Corn (corn (Zea mays); 31 g ai/ha): 10; Plant response rating, Corn (corn (Zea mays); 125 g ai/ha): 30; Plant response rating, Blackgrass ([14]; 31 g ai/ha): 0; Plant response rating, Blackgrass ([14]; 125 g ai/ha): 30; Plant response rating, Galium ([15]; 31 g ai/ha): 60; Plant response rating, Galium ([15]; 125 g ai/ha): 90; Plant response rating, Rice (0 to 100 scale, 0 is no effect, 100 is complete control) (rice (Oryza sativa)): 20; Plant response rating, Sedge, Umbrella (0 to 100 scale, 0 is no effect, 100 is complete control) [16]: 80; Plant response rating, Ducksalad (0 to 100 scale, 0 is no effect, 100 is complete control) [17]: 65; Plant response rating, Barnyardgrass (0 to 100 scale, 0 is no effect, 100 is complete control) [18]: 65
Cc1cccc2sc([C@@H](C)Nc3ncc(C(F)(F)F)c(N)n3)cc12 [Compound 115] | 20 | 60 | 40 | 80 | 60 | 80 | 20 | 40 | 30 | 90 | 90 | 100 | 10 | 100 | 70 | 90 | 30 | 80 | 30 | 50 | Plant response rating, Foxtail, Giant ([11]; 31 g ai/ha): 60; Plant response rating, Foxtail, Giant ([11]; 125 g ai/ha): 100; Plant response rating, Pigweed ([12]; 31 g ai/ha): 100; Plant response rating, Pigweed ([12]; 125 g ai/ha): 100; Plant response rating, Wheat ([13]; 31 g ai/ha): 0; Plant response rating, Wheat ([13]; 125 g ai/ha): 20; Plant response rating, Corn (corn (Zea mays); 31 g ai/ha): 10; Plant response rating, Corn (corn (Zea mays); 125 g ai/ha): 100; Plant response rating, Blackgrass ([14]; 31 g ai/ha): 0; Plant response rating, Blackgrass ([14]; 125 g ai/ha): 30; Plant response rating, Galium ([15]; 31 g ai/ha): 50; Plant response rating, Galium ([15]; 125 g ai/ha): 90; Plant response rating, Rice (0 to 100 scale, 0 is no effect, 100 is complete control) (rice (Oryza sativa)): 0; Plant response rating, Sedge, Umbrella (0 to 100 scale, 0 is no effect, 100 is complete control) [16]: 95; Plant response rating, Ducksalad (0 to 100 scale, 0 is no effect, 100 is complete control) [17]: 65; Plant response rating, Barnyardgrass (0 to 100 scale, 0 is no effect, 100 is complete control) [18]: 90

— patent US20220119354A1, “DIAMINO-SUBSTITUTED PYRIDINES AND PYRIMIDINES AS HERBICIDES” (FMC Corporation, priority 2019, published 2022)
